Test results reported in ChEMBL document CHEMBL1201862, “PubChem BioAssay data set” (2004).
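Growth conditions: 96-well plates. Treatment: test compound, 48 hours, 5 concentrations. Analysis: linear interpolation between bracketing concentrations; unreached endpoints set to highest concentration. GI50 is the concentration that inhibits growth by half.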 Calls of active or inactive are those of the source. No stated cut-off is given here; in the data, active = GI50 up to about 1.1 µM and inactive = higher.

Assays:
Experiment in all cases: growth of human tumour cells (NCI), 48 h
[1] = test system: OVCAR-3
[2] = test system: UO-31
[3] = test system: HCT-116
[4] = test system: CAKI-1
[5] = test system: UACC-62
[6] = test system: SF-295
[7] = test system: T47D
[8] = test system: LOX IMVI
[9] = test system: SK-MEL-2
[10] = test system: MCF7
[11] = test system: SF-268
[12] = test system: K562
[13] = test system: Malme-3M
[14] = test system: ACHN
[15] = test system: UACC-257
[16] = test system: MDA-N
[17] = test system: HCT-15
[18] = test system: CCRF-CEM
[19] = test system: RXF 393
[20] = test system: OVCAR-5

Structure (SMILES)	GI50 [1]	GI50 [2]	GI50 [3]	GI50 [4]	GI50 [5]	GI50 [6]	GI50 [7]	GI50 [8]	GI50 [9]	GI50 [10]	GI50 [11]	GI50 [12]	GI50 [13]	GI50 [14]	GI50 [15]	GI50 [16]	GI50 [17] [µM]	GI50 [18]	GI50 [19]	GI50 [20]
CC(=O)NC1=C(C)C(=O)c2c(nc3n2CCC3OC(=O)c2ccccc2)C1=N (stereo not given)	0.552 µM (active)	2.04 µM (inactive)	3.15 µM (inactive)	1.84 µM (inactive)	0.314 µM (active)	2.86 µM (inactive)	1.85 µM (inactive)	0.406 µM (active)	1.76 µM (inactive)	0.755 µM (active)	2.18 µM (inactive)	1.79 µM (inactive)	1.13 µM (inactive)	1.71 µM (inactive)	1.24 µM (inactive)	0.182 µM (active)	2.72	1.58 µM (inactive)	1.29 µM (inactive)	2.98 µM (inactive)
CCC(C)C1=C(OC(C)=O)[N+]2([O-])Oc3ccc(-c4c(OC(C)=O)c(OC(C)=O)c(-c5ccc(OC(C)=O)cc5)c(OC(C)=O)c4OC(C)=O)cc3OC2(C(C)CC)C(=O)N1OC(C)=O (stereo not given)	11.4 µM (inactive)	30.6 µM (inactive)	9.62 µM (inactive)	34 µM (inactive)	9.06 µM (inactive)	8.69 µM (inactive)	10.9 µM (inactive)	17.2 µM (inactive)	14.9 µM (inactive)	19.6 µM (inactive)	12.4 µM (inactive)	12.2 µM (inactive)	18.7 µM (inactive)	19.6 µM (inactive)	30.5 µM (inactive)	12.3 µM (inactive)	22.5	9.57 µM (inactive)	29.6 µM (inactive)	24 µM (inactive)
C=C1C2CCC3(CCC4C5(C)CCCC4(C=[N+](CCO)C5)C3C2)C1O (stereo not given)	> 100 µM (inactive)	> 100 µM (inactive)	> 100 µM (inactive)	> 100 µM (inactive)	> 100 µM (inactive)	> 100 µM (inactive)	> 100 µM (inactive)	> 100 µM (inactive)	> 100 µM (inactive)	> 100 µM (inactive)	> 100 µM (inactive)	> 10 µM (inactive)	> 100 µM (inactive)	> 100 µM (inactive)	> 100 µM (inactive)	> 100 µM (inactive)	> 100	> 100 µM (inactive)	> 100 µM (inactive)	> 100 µM (inactive)
COc1cc([C@@H]2c3cc4c(cc3[C@H](OC3OC5COC(C(C)C)OC5C(O)C3O)C3COC(=O)[C@@H]32)OCO4)cc(OC)c1O (stereo not given in full)	11.8 µM (inactive)	10.2 µM (inactive)	3.85 µM (inactive)	4.27 µM (inactive)	11.1 µM (inactive)	8.22 µM (inactive)	26.6 µM (inactive)	12.2 µM (inactive)	17.3 µM (inactive)	3.6 µM (inactive)	9.86 µM (inactive)	8.61 µM (inactive)	16.6 µM (inactive)	3.51 µM (inactive)	8.87 µM (inactive)	2.4 µM (inactive)	10.3	6.03 µM (inactive)	4.76 µM (inactive)	12.4 µM (inactive)
COC(=O)c1c2c(cc3c1CC1(C3)Cc3ccc4c(c3C1=O)CCC4)CCC2 (stereo not given)	1.94 µM (inactive)	3.05 µM (inactive)	3.01 µM (inactive)	2.26 µM (inactive)	2.26 µM (inactive)	2.12 µM (inactive)	5.13 µM (inactive)	3.9 µM (inactive)	3.98 µM (inactive)	2.45 µM (inactive)	6.31 µM (inactive)	2.2 µM (inactive)	3.39 µM (inactive)	5.15 µM (inactive)	5.04 µM (inactive)	0.608 µM (active)	3.58	3.63 µM (inactive)	0.537 µM (active)	> 21.1 µM (inactive)
C=CCn1c(-c2ccc(Cl)cc2Cl)cs/c1=N\c1c(C)n(C)n(-c2ccccc2)c1=O	10.7 µM (inactive)	11.5 µM (inactive)	7.24 µM (inactive)	14.4 µM (inactive)	10.4 µM (inactive)	6.9 µM (inactive)	3.12 µM (inactive)	9.53 µM (inactive)	14.7 µM (inactive)	9.14 µM (inactive)	15.7 µM (inactive)	2.51 µM (inactive)	15.9 µM (inactive)	10 µM (inactive)	7.05 µM (inactive)	8.55 µM (inactive)	13.7	6.92 µM (inactive)	14.5 µM (inactive)	16.4 µM (inactive)
CCOc1ccc(/N=N/c2ccc3cc(/C(C)=N/NC(=O)/C(C#N)=C\c4ccc(N(CCC#N)CCC#N)cc4)c(=O)oc3c2)cc1	> 10 µM (inactive)	> 10 µM (inactive)	> 10 µM (inactive)	> 10 µM (inactive)	> 10 µM (inactive)	> 10 µM (inactive)	> 10 µM (inactive)	> 10 µM (inactive)	> 10 µM (inactive)	> 10 µM (inactive)	> 10 µM (inactive)	> 10 µM (inactive)	> 10 µM (inactive)	> 10 µM (inactive)	> 10 µM (inactive)	> 10 µM (inactive)	> 10	> 10 µM (inactive)	> 10 µM (inactive)	> 10 µM (inactive)
N=C1/C(=C/c2ccccc2)C(=O)N=C2SC=NN12	> 100 µM (inactive)	> 100 µM (inactive)	> 100 µM (inactive)	> 100 µM (inactive)	> 100 µM (inactive)	> 100 µM (inactive)	> 100 µM (inactive)	> 100 µM (inactive)	> 100 µM (inactive)	> 100 µM (inactive)	> 100 µM (inactive)	> 100 µM (inactive)	> 100 µM (inactive)	> 100 µM (inactive)	> 100 µM (inactive)	> 100 µM (inactive)	> 100	> 100 µM (inactive)	> 100 µM (inactive)	> 100 µM (inactive)
O=C(/C=C/c1ccc(O)cc1)NCCc1ccc(O)cc1 [N-P-COUMAROYL TYRAMINE]	8.93 µM (inactive)	11.1 µM (inactive)	> 12.5 µM (inactive)	10.2 µM (inactive)	7.41 µM (inactive)	8.13 µM (inactive)	> 12.5 µM (inactive)	> 12.5 µM (inactive)	> 12.5 µM (inactive)	> 12.5 µM (inactive)	9.57 µM (inactive)	5.6 µM (inactive)	> 12.5 µM (inactive)	3.49 µM (inactive)	> 12.5 µM (inactive)	> 12.5 µM (inactive)	> 12.5	2.99 µM (inactive)	> 12.5 µM (inactive)	> 12.5 µM (inactive)
CC1=C[C@@H](C)C[C@]2(C)CC[C@H](O2)[C@]23CC[C@](C(=O)O)(C[C@H](O2)[C@@H]2O[C@@](C)(CC2=O)[C@@H](O)[C@H]2CC[C@@]4(CCC[C@@H](O4)[C@H](C)C(=O)O[C@H]4C[C@H]([C@]5(O)OCC[C@H](C)[C@@H]5O)O[C@H]4C=C1)O2)O3	> 10 µM (inactive)	> 10 µM (inactive)	> 10 µM (inactive)	> 10 µM (inactive)	> 9.02 µM (inactive)	> 5.86 µM (inactive)	> 10 µM (inactive)	> 6.92 µM (inactive)	> 6.85 µM (inactive)	> 10 µM (inactive)	> 10 µM (inactive)	> 10 µM (inactive)	> 10 µM (inactive)	> 10 µM (inactive)	> 10 µM (inactive)	> 8.95 µM (inactive)	> 10	> 10 µM (inactive)	> 10 µM (inactive)	> 10 µM (inactive)
COc1ccc2nc3ccc(OC)cc3c(SCCO)c2c1	36 µM (inactive)	29.3 µM (inactive)	15.8 µM (inactive)	13.4 µM (inactive)	38.5 µM (inactive)	49.2 µM (inactive)	15.8 µM (inactive)	8.43 µM (inactive)	30 µM (inactive)	6.01 µM (inactive)	25.2 µM (inactive)	9.91 µM (inactive)	15.6 µM (inactive)	23.7 µM (inactive)	32.7 µM (inactive)	9.62 µM (inactive)	27.4	3.61 µM (inactive)	12.6 µM (inactive)	> 100 µM (inactive)
CN(C)c1ccc(/C=C(\NC(=O)c2ccccc2)C(=O)Nc2ccccc2C(=O)NN2C(=O)CSC2c2ccc(N(C)C)cc2)cc1 (stereo not given)	> 100 µM (inactive)	> 100 µM (inactive)	> 100 µM (inactive)	> 100 µM (inactive)	> 100 µM (inactive)	> 100 µM (inactive)	> 100 µM (inactive)	> 100 µM (inactive)	> 100 µM (inactive)	> 100 µM (inactive)	> 100 µM (inactive)	33.3 µM (inactive)	> 100 µM (inactive)	> 100 µM (inactive)	16.1 µM (inactive)	> 100 µM (inactive)	92.7	> 100 µM (inactive)	86.3 µM (inactive)	> 100 µM (inactive)
CC(C)C(Cl)CCC(C)(Cl)C(=O)CBr (stereo not given)	6.18 µM (inactive)	5.98 µM (inactive)	3.03 µM (inactive)	6.1 µM (inactive)	2.77 µM (inactive)	19.3 µM (inactive)	2.44 µM (inactive)	0.776 µM (active)	8.32 µM (inactive)	2.37 µM (inactive)	20.7 µM (inactive)	1.02 µM (active)	9.57 µM (inactive)	7.19 µM (inactive)	3.79 µM (inactive)	1.95 µM (inactive)	2.99	0.331 µM (active)	2.44 µM (inactive)	12.8 µM (inactive)
